Experimental data: EP0808325B1, “[…] […] SERIES FOR […] GABA RECEPTOR” (priority 1994, dated 1996)

Key:
[1] = tested on: metrazol induced convulsions; experiment: animal or person; type: in vivo, mice
mice [2] = experiment: light/dark transition test; type: in vivo, N.I.H. Swiss-Webster mice; settings: IP
Source text: The light/dark transition test (Crawley and Goodwin, Pharmacol. Biochem. Behav. 13:67-70 1980) is based on the observation that rodents naturally tend to explore novel environments, but open, brightly lit arenas are aversive to the rodents and inhibit exploratory behavior (Christmas and Maxwell, Neuropharmacol. 9:17-29 1970; File, J. Neurosci. Meth. 2:219-238 1980).
Male N.I.H. Swiss-Webster mice (Harlan, Harlan, Indianapolis, IN) weighing 15-20 g were housed four per cage in polyethylene cages with sawdust bedding. The colony room was environmentally controlled (22°C) with a 12 hr light/dark cycle (0600-1800 hr). Food and water were available ad libitum, except during testing. The experiments were run from 0700-1500 hr and groups were counterbalanced for time of day effects. Mice were only administered drug or vehicle once.
The method used was a modification of methods previously described (Wieland et al., Br. Res. 565:263-268 (1991)). The apparatus included two 2-compartment automated test chambers (Model RXYZCM16, Omnitech Electronics, Columbus, OH). The open compartment was connected to the enclosed compartment via a 7.5 x 7.5 cm passageway. The open compartment was brightly lit using a 200 W incandescent light bulb. The experimental room was kept dark. Interruptions of the infrared beams in either chamber were automatically recorded by being linked to a computer through a Digiscan Analyzer (Omnitech Electronics) and the data was analyzed using the Integrated Lab Animal Monitoring System (Omnitech Electronics).
N.I.H. Swiss-Webster mice were administered vehicle or test drug intraperitoneally (IP), 10 min later they were placed in the center of the lit compartment. The number of transitions between the lit and dark chambers, total activity in the lit chamber and the time spent in the lit chamber were measured during a 10 min test period.

mice [3] = experiment: elevated plus-maze; type: in vivo, N.I.H. Swiss-Webster mice
Outline: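 Male Swiss-Webster mice (15-20 g), dosed once with drug or vehicle, were placed on an elevated plus-maze 10 min post-injection for 5 min. Open-arm entries and open-arm time recorded, each as a percentage of total arm entries or time; center time excluded.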

CC(=O)[C@H]1CC[C@H]2[C@@H]3CC[C@H]4C[C@H](O)CC[C@]4(C)[C@H]3CC[C@]12C [3α-hydroxy-5α-pregnan-20-one, reference compound]
% Protected ([1]; IP, 50% hpbcd, 10 mg/kg, 10 minutes prior to metrazol (85 mg/kg)): 100%
ED50 ([1]; Mus musculus, metrazol s.c., steroid i.p., 20% hydroxypropyl-β-cyclodextrin in water): 4.9 mg/kg
activity (mice [2]; 10 & 20 mg/kg, compared to control groups): significant (p < 0.01) increases
number of transitions between the dark box and the light box (mice [2]; at doses tested, versus control (Dunnett's t-test)): significantly increased
time spent on the open-arms (mice [3]; 10 mg/kg (p ≤ 0.01)): significant increases
entries into the open-arms (mice [3]; 20 mg/kg (p ≤ 0.05)): significant increase
% Control (mice [3]; IP, 50% hpbcd, 20 mg/kg): 143.7%
